“Also recorded” adds a separate entry of the source. Counter-ions that a name gives are not always drawn. Like-named read-outs stand apart in the source and are kept apart here.
Tests used:
[1] = tested on: human lung adenocarcinoma (H-2981); test: Radiosensitization of human lung adenocarcinoma xenografts in Scid mice; conditions: 2 mg/kg i.m., -1 or -2 hours to 1 Gy; hydrochloride
Method: Tumor tissue suspensions were prepared and inoculated subcutaneously into the midback region of 3-5 week old Scid mice so that 10 mm×10 mm tumors were grown in about 25 days. […] The tumor volumes were measured and recorded every 2-3 days and analyzed by a t-test at day 17 after inoculation.

[2] = cited from earlier work
dopamine2 (D2) receptor = conditions: cited from earlier work
[3] = tested on: 5-hydroxytryptamine3 (5-HT3) receptor; conditions: cited from earlier work
human cancer patients = conditions: intravenous, cisplatin chemotherapy; cited from earlier work

| SMILES | radiosensitization, effect of pH (acidic vs neutral form) [1] | solubility in water / aqueous vehicles ([2]; hydrochloride) | solubility in water / aqueous vehicles [2] | binding to D2 receptor (dopamine2 (D2) receptor) | sodium ion dependence of D2 receptor binding (dopamine2 (D2) receptor) | binding to 5-HT3 receptor [3] | inhibition of emesis (human cancer patients) |
| --- | --- | --- | --- | --- | --- | --- | --- |
| CCN(CC)CCNC(=O)c1cc(Cl)c(N)cc1OC [metoclopramide hydrochloride] | not altered; also recorded: Lack of any measurable difference | freely soluble in water | – | – | – | – | – |
| CCN(CC)CCNC(=O)c1cc(Cl)c(N)cc1OC [metoclopramide] | – | – | quite insoluble in water | known to bind | sodium ion dependent | known to bind | can inhibit the biological response of emesis |

Reference: patent publication US5561161A, “Methods of administering and pharmaceutical formulations containing n-substituted benzamides and/or acid addition salts thereof” (priority 1994, dated 1996)
